# Assay results reported in the supplement of paper PMC10307832.
# Compound: Cn1nnc2c(C(N)=O)ncn2c1=O [Temozolomide] + CC(=O)Nc1cccc(-n2c(=O)n(C3CC3)c(=O)c3c(Nc4ccc(I)cc4F)n(C)c(=O)c(C)c32)c1 [Trametinib] (partner 0.02 µM)
# Assay: relative viability (nuclei count vs DMSO), 5 days (fraction); higher = more cells survive
# Conditions: first compound 0.2 µM
# Summary of the method: (§1)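 After 5 days of treatment, lung cancer cells in 1536-well plates were fixed and stained in a single step (final 0.05% Triton X-100, 1% formaldehyde, 1 ug/ml Hoechst) and their nuclei counted on 4× images. Treatment had been applied by pin tool the day after seeding as one drug alone or as a fixed anchor-drug dose with five library-drug doses (not always all listed) in √10 steps. Relative viability is the nuclei count of treated wells divided by that of vehicle wells, and values are medians of duplicate plates.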
row,Cell Line,relative viability
1,HARA,0.717
2,HCC-15,0.38
3,HCC-44,1.06
4,HCC-78,0.602
5,HCC-366,0.395
6,HCC-827,0.56
7,HOP-62,0.395
8,LC-2-ad,0.935
9,LCLC-97TM1,0.222
10,LCLC-103H,0.725
11,LK-2,0.653
12,NCI-H522,0.654
13,NCI-H1650,0.618
14,NCI-H2342,0.638
15,SW 900,0.728

# Same assay, conditions: first compound 0.6325 µM
row,Cell Line,relative viability
1,201T,0.72
2,A-427,0.711
3,BEN,1.12
4,CAL-12T,0.369
5,COR-L23,0.614
6,COR-L 105,0.42
7,ChaGo-K-1,0.87
8,EKVX,0.318
9,EMC-BAC-2,0.891
10,EPLC-272H,0.279
11,H3255,0.62
12,HARA,0.601
13,HCC-15,0.392
14,HCC-44,1.16
15,HCC-78,0.793
16,HCC-366,0.31
17,HCC-827,0.593
18,HOP-62,0.445
19,LC-2-ad,0.926
20,LCLC-97TM1,0.161
21,LCLC-103H,0.624
22,LK-2,0.685
23,NCI-H522,0.724
24,NCI-H1648,0.477
25,NCI-H1650,0.654
26,NCI-H2170,0.984
27,NCI-H2342,0.848
28,SW 900,0.783

# Same assay, conditions: first compound 2 µM
row,Cell Line,relative viability
1,201T,0.725
2,A-427,0.69
3,BEN,1.1
4,CAL-12T,0.337
5,COR-L23,0.641
6,COR-L 105,0.395
7,ChaGo-K-1,0.967
8,EKVX,0.286
9,EMC-BAC-2,0.916
10,EPLC-272H,0.338
11,H3255,0.656
12,HARA,0.886
13,HCC-15,0.417
14,HCC-44,1.08
15,HCC-78,0.646
16,HCC-366,0.427
17,HCC-827,0.286
18,HOP-62,0.399
19,LC-2-ad,0.912
20,LCLC-97TM1,0.234
21,LCLC-103H,0.686
22,LK-2,0.663
23,NCI-H522,0.954
24,NCI-H1648,0.454
25,NCI-H1650,0.611
26,NCI-H2170,0.902
27,NCI-H2342,0.757
28,SW 900,0.966

# Same assay, conditions: first compound 6.325 µM
row,Cell Line,relative viability
1,201T,0.681
2,A-427,0.502
3,BEN,1
4,CAL-12T,0.418
5,COR-L23,0.534
6,COR-L 105,0.431
7,ChaGo-K-1,0.9
8,EKVX,0.338
9,EMC-BAC-2,0.891
10,EPLC-272H,0.324
11,H3255,0.63
12,HARA,0.89
13,HCC-15,0.318
14,HCC-44,1.05
15,HCC-366,0.425
16,HCC-827,0.532
17,HOP-62,0.424
18,LC-2-ad,0.895
19,LCLC-97TM1,0.199
20,LCLC-103H,0.678
21,LK-2,0.653
22,NCI-H522,0.691
23,NCI-H1648,0.545
24,NCI-H1650,0.642
25,NCI-H2170,0.876
26,NCI-H2342,0.799
27,SW 900,1

# Same assay, conditions: first compound 20 µM
row,Cell Line,relative viability
1,201T,0.714
2,A-427,0.458
3,BEN,0.853
4,CAL-12T,0.268
5,COR-L23,0.545
6,COR-L 105,0.402
7,ChaGo-K-1,0.887
8,EKVX,0.247
9,EMC-BAC-2,0.85
10,EPLC-272H,0.277
11,H3255,0.214
12,HARA,0.441
13,HCC-15,0.385
14,HCC-44,0.956
15,HCC-78,0.736
16,HCC-366,0.329
17,HCC-827,0.136
18,HOP-62,0.367
19,LC-2-ad,0.859
20,LCLC-97TM1,0.173
21,LCLC-103H,0.617
22,LK-2,0.489
23,NCI-H522,0.671
24,NCI-H1648,0.307
25,NCI-H1650,0.39
26,NCI-H2170,0.348
27,NCI-H2342,0.818
28,SW 900,0.59

# Compound: Cn1nnc2c(C(N)=O)ncn2c1=O [Temozolomide] + CCNC(=O)c1noc(-c2cc(C(C)C)c(O)cc2O)c1-c1ccc(CN2CCOCC2)cc1 [Luminespib] (partner 0.01 µM)
# Assay: as above
# Conditions: first compound 0.2 µM
# Summary of the method: as §1
row,Cell Line,relative viability
1,201T,1.11
2,A-427,0.699
3,ABC-1,0.507
4,BEN,0.323
5,CAL-12T,0.27
6,COR-L23,0.639
7,COR-L 105,0.798
8,ChaGo-K-1,0.679
9,EKVX,0.364
10,EMC-BAC-2,1.11
11,EPLC-272H,0.234
12,HARA,0.681
13,HCC-15,0.347
14,HCC-44,0.634
15,HCC-827,0.52
16,HOP-62,0.839
17,LC-2-ad,0.928
18,LCLC-97TM1,0.835
19,LCLC-103H,1.09
20,LK-2,0.177
21,NCI-H522,0.877
22,NCI-H1563,0.472
23,NCI-H1650,0.187
24,NCI-H2342,0.633
25,SW 900,0.163

# Same assay, conditions: first compound 0.6325 µM
row,Cell Line,relative viability
1,201T,1.07
2,A-427,0.803
3,ABC-1,0.439
4,BEN,0.323
5,CAL-12T,0.518
6,COR-L23,0.669
7,COR-L 105,0.781
8,ChaGo-K-1,0.625
9,EKVX,0.873
10,EMC-BAC-2,1.18
11,EPLC-272H,0.279
12,H3255,0.991
13,HARA,0.801
14,HCC-15,0.356
15,HCC-44,1.05
16,HCC-827,0.67
17,HOP-62,0.88
18,LC-2-ad,1.05
19,LCLC-97TM1,0.7
20,LCLC-103H,1.04
21,LK-2,0.186
22,NCI-H522,1.21
23,NCI-H1563,0.499
24,NCI-H1623,0.488
25,NCI-H1650,0.205
26,NCI-H2170,0.7
27,NCI-H2342,0.674
28,SW 900,0.175

# Same assay, conditions: first compound 2 µM
row,Cell Line,relative viability
1,201T,1.05
2,A-427,0.799
3,ABC-1,0.788
4,BEN,0.462
5,CAL-12T,0.862
6,COR-L23,0.737
7,COR-L 105,1.13
8,ChaGo-K-1,0.785
9,EKVX,0.888
10,EMC-BAC-2,1.21
11,EPLC-272H,0.304
12,H3255,0.946
13,HARA,0.835
14,HCC-15,0.314
15,HCC-44,1.12
16,HCC-827,0.638
17,HOP-62,0.988
18,LC-2-ad,1.09
19,LCLC-97TM1,0.749
20,LCLC-103H,1.07
21,LK-2,0.199
22,NCI-H522,0.981
23,NCI-H1563,0.525
24,NCI-H1623,0.416
25,NCI-H1650,0.178
26,NCI-H2170,0.749
27,NCI-H2342,0.706
28,SW 900,0.169

# Same assay, conditions: first compound 6.325 µM
row,Cell Line,relative viability
1,201T,1.02
2,A-427,0.618
3,ABC-1,0.551
4,BEN,0.233
5,CAL-12T,0.115
6,COR-L23,0.696
7,COR-L 105,0.561
8,ChaGo-K-1,0.557
9,EKVX,0.829
10,EMC-BAC-2,1.12
11,EPLC-272H,0.707
12,H3255,0.868
13,HARA,0.788
14,HCC-15,0.218
15,HCC-44,0.897
16,HCC-827,0.382
17,HOP-62,0.93
18,LC-2-ad,0.899
19,LCLC-97TM1,0.806
20,LCLC-103H,1.01
21,LK-2,0.163
22,NCI-H522,1.18
23,NCI-H1563,0.533
24,NCI-H1623,0.361
25,NCI-H1650,0.189
26,NCI-H2170,0.478
27,NCI-H2342,0.629
28,SW 900,0.131

# Same assay, conditions: first compound 20 µM
row,Cell Line,relative viability
1,201T,0.985
2,A-427,0.394
3,ABC-1,0.553
4,BEN,0.228
5,CAL-12T,0.723
6,COR-L23,0.612
7,COR-L 105,1.04
8,ChaGo-K-1,0.556
9,EKVX,0.714
10,EMC-BAC-2,1.23
11,EPLC-272H,0.446
12,H3255,0.28
13,HARA,0.697
14,HCC-15,0.271
15,HCC-44,0.966
16,HCC-827,0.191
17,HOP-62,0.968
18,LC-2-ad,0.988
19,LCLC-97TM1,0.75
20,LCLC-103H,0.872
21,LK-2,0.187
22,NCI-H522,1.05
23,NCI-H1563,0.487
24,NCI-H1623,0.519
25,NCI-H1650,0.217
26,NCI-H2170,0.359
27,NCI-H2342,0.637
28,SW 900,0.149
